Results from ChEMBL document CHEMBL1147026, “Synthesis of pseudopeptides based L-tryptophan as a potential antimicrobial agent” (Bioorg Med Chem Lett, 2007).
≈ marks a conversion by molar mass, not a printed value.

Key:
Staphylococcus aureus [1] = assay: Antibacterial activity against methicillin-resistant Staphylococcus aureus CMAH 0515 after 24 hrs by two fold dilution method; type: functional
Proteus vulgaris = assay: Antimicrobial activity against Proteus vulgaris CMCC(B) 49001 after 24 hrs by two fold dilution method; type: functional
Klebsiella aerogenes = assay: Antibacterial activity against Enterobacter aerogenes CMCC(B) 45103 after 24 hrs by two fold dilution method; type: functional
Cryptococcus neoformans = assay: Antifungal activity against Cryptococcus neoformans ATCC 90112 after 48 to 72 hrs by broth microdilution method; type: functional
[2] = Toxicity in human erythrocytes assessed as haemolysis upto 30 ug/mL; type: cell-based, Erythrocyte; details: read-out: Activity
Candida albicans [3] = assay: Antifungal activity against Candida albicans CMAM 0577 after 48 to 72 hrs by broth microdilution method; type: functional
Candida albicans [4] = assay: Antifungal activity against Candida albicans CMAH 0511 after 48 to 72 hrs by broth microdilution method; type: functional
Candida albicans [5] = assay: Antifungal activity against Candida albicans CMAM 0594 after 48 to 72 hrs by broth microdilution method; type: functional
Candida albicans [6] = assay: Antifungal activity against Candida albicans CMAH 0572 after 48 to 72 hrs by broth microdilution method; type: functional
Micrococcus luteus = assay: Antimicrobial activity against Micrococcus luteus CMCC(B) 28001 after 24 hrs by two fold dilution method; type: functional
Staphylococcus aureus [7] = assay: Antibacterial activity against methicillin-susceptible Staphylococcus aureus ATCC 25923 after 24 hrs by two fold dilution method; type: functional; details: ATCC 25923, 24 h
Candida albicans [8] = assay: Antifungal activity against Candida albicans ATCC 10231 after 48 to 72 hrs by broth microdilution method; type: functional
[9] = Toxicity in human erythrocytes assessed as haemolysis upto 4000 ug/mL; type: cell-based, Erythrocyte; details: read-out: Activity
Bacillus subtilis = assay: Antimicrobial activity against Bacillus subtilis after 24 hrs by two fold dilution method; type: functional
Candida albicans [10] = assay: Antifungal activity against Candida albicans CMAH 0527 after 48 to 72 hrs by broth microdilution method; type: functional
Candida albicans [11] = assay: Antifungal activity against fluconazole-resistant Candida albicans CMAM 0597 after 48 to 72 hrs by broth microdilution method; type: functional
Staphylococcus aureus [12] = assay: Antibacterial activity against methicillin-resistant Staphylococcus aureus CMAH 0504 after 24 hrs by two fold dilution method; type: functional
Candida albicans [13] = assay: Antifungal activity against Candida albicans CMAM 0592 after 48 to 72 hrs by broth microdilution method; type: functional
Candida albicans [14] = assay: Antifungal activity against Candida albicans CMAH 0501 after 48 to 72 hrs by broth microdilution method; type: functional
Candida albicans [15] = assay: Antifungal activity against fluconazole-resistant Candida albicans CMAH 0520 after 48 to 72 hrs by broth microdilution method; type: functional
[16] = Toxicity in human erythrocytes assessed as haemolysis upto 500 ug/mL; type: cell-based, Erythrocyte; details: read-out: Activity
Staphylococcus aureus [17] = assay: Antibacterial activity against methicillin-resistant Staphylococcus aureus CMAH 0430 after 24 hrs by two fold dilution method; type: functional
Saccharomyces cerevisiae = assay: Antimicrobial activity against Saccharomyces cerevisiae after 48 to 72 hrs by broth microdilution method; type: functional
Candida albicans [18] = assay: Antifungal activity against Candida albicans CMAH 0507 after 48 to 72 hrs by broth microdilution method; type: functional
Candida albicans [19] = assay: Antifungal activity against Candida albicans CMAH 0503 after 48 to 72 hrs by broth microdilution method; type: functional
Aspergillus sp. = assay: Antifungal activity against Aspergillus sp. after 48 to 72 hrs by broth microdilution method; type: functional
Escherichia coli = assay: Antimicrobial activity against Escherichia coli ATCC 25922 after 24 hrs by two fold dilution method; type: functional; details: ATCC 25922, 24 h
Pseudomonas aeruginosa = assay: Antimicrobial activity against Pseudomonas aeruginosa ATCC 27853 after 24 hrs by two fold dilution method; type: functional; details: ATCC 27853, 24 h
Rhodotorula glutinis = assay: Antimicrobial activity against Rhodotorula glutinis SYM 2209 after 48 to 72 hrs by broth microdilution method; type: functional

`COC(=O)[C@H](Cc1c[nH]c2ccccc12)NC(=O)c1ccccn1` showed an MBC (Staphylococcus aureus [1]) of 4 µg/mL (≈ 12.4 µM), an MIC (Staphylococcus aureus [1]) of 1 µg/mL (≈ 3.09 µM) and an MBC (Proteus vulgaris) of over 128 µg/mL. The MIC (Proteus vulgaris) was 32 µg/mL (≈ 99 µM), the MIC (Klebsiella aerogenes) was 64 µg/mL (≈ 198 µM) and the MFC (Cryptococcus neoformans) was 2 µg/mL (≈ 6.19 µM). It also gave an MIC (Cryptococcus neoformans) of 1 µg/mL (≈ 3.09 µM), a hemolysis [2] of 50% and an MFC (Candida albicans [3]) of 64 µg/mL (≈ 198 µM). For the same compound, the MIC (Candida albicans [3]) was 32 µg/mL (≈ 99 µM), the MFC (Candida albicans [4]) was 4 µg/mL (≈ 12.4 µM) and the MIC (Candida albicans [4]) was 2 µg/mL (≈ 6.19 µM). For the same compound, the MFC (Candida albicans [5]) was 32 µg/mL (≈ 99 µM), the MIC (Candida albicans [5]) was 8 µg/mL (≈ 24.7 µM) and the MFC (Candida albicans [6]) was 64 µg/mL (≈ 198 µM). For the same compound, the MIC (Candida albicans [6]) was 32 µg/mL (≈ 99 µM), the MBC (Micrococcus luteus) was 8 µg/mL (≈ 24.7 µM) and the MIC (Micrococcus luteus) was 4 µg/mL (≈ 12.4 µM). The MBC (Staphylococcus aureus [7]) was 8 µg/mL (≈ 24.7 µM), the MIC (Staphylococcus aureus [7]) was 1 µg/mL (≈ 3.09 µM) and the MFC (Candida albicans [8]) was 4 µg/mL (≈ 12.4 µM). It also gave an MIC (Candida albicans [8]) of 8 µg/mL (≈ 24.7 µM), a hemolysis [9] of 6% and an MBC (Bacillus subtilis) of 16 µg/mL (≈ 49.5 µM). The MIC (Bacillus subtilis) was 4 µg/mL (≈ 12.4 µM), the MFC (Candida albicans [10]) was 32 µg/mL (≈ 99 µM) and the MIC (Candida albicans [10]) was 16 µg/mL (≈ 49.5 µM). For the same compound, the MFC (Candida albicans [11]) was 32 µg/mL (≈ 99 µM), the MIC (Candida albicans [11]) was 8 µg/mL (≈ 24.7 µM) and the MBC (Staphylococcus aureus [12]) was 8 µg/mL (≈ 24.7 µM). The MIC (Staphylococcus aureus [12]) was 2 µg/mL (≈ 6.19 µM), the MFC (Candida albicans [13]) was 16 µg/mL (≈ 49.5 µM) and the MIC (Candida albicans [13]) was 4 µg/mL (≈ 12.4 µM). For the same compound, the MFC (Candida albicans [14]) was 4 µg/mL (≈ 12.4 µM), the MIC (Candida albicans [14]) was 16 µg/mL (≈ 49.5 µM) and the MFC (Candida albicans [15]) was 32 µg/mL (≈ 99 µM). It also gave an MIC (Candida albicans [15]) of 8 µg/mL (≈ 24.7 µM), a hemolysis [16] of 2.52% and an MBC (Staphylococcus aureus [17]) of 4 µg/mL (≈ 12.4 µM). The MIC (Staphylococcus aureus [17]) was 1 µg/mL (≈ 3.09 µM), the MFC (Saccharomyces cerevisiae) was 8 µg/mL (≈ 24.7 µM) and the MIC (Saccharomyces cerevisiae) was 4 µg/mL (≈ 12.4 µM). It also gave an MFC (Candida albicans [18]) of 16 µg/mL (≈ 49.5 µM), an MIC (Candida albicans [18]) of 8 µg/mL (≈ 24.7 µM) and an MFC (Candida albicans [19]) of 32 µg/mL (≈ 99 µM). It also gave an MIC (Candida albicans [19]) of 8 µg/mL (≈ 24.7 µM), an MFC50 (Aspergillus sp.) of 64 µg/mL (≈ 198 µM) and an MFC90 (Aspergillus sp.) of over 128 µg/mL. For the same compound, the MIC (Aspergillus sp.; Aspergillus sp.) was 33.6 µg/mL (≈ 104 µM), the MIC50 (Aspergillus sp.; Aspergillus sp.) was 8 µg/mL (≈ 24.7 µM) and the MIC90 (Aspergillus sp.; Aspergillus sp.) was 64 µg/mL (≈ 198 µM). For the same compound, the MIC (Escherichia coli) was 64 µg/mL (≈ 198 µM), the MBC (Pseudomonas aeruginosa) was over 128 µg/mL and the MIC (Pseudomonas aeruginosa) was 32 µg/mL (≈ 99 µM). For the same compound, the MFC (Rhodotorula glutinis) was 2 µg/mL (≈ 6.19 µM) and the MIC (Rhodotorula glutinis) was 1 µg/mL (≈ 3.09 µM).
`C[C@@H]1[C@H](O)[C@@H](C)/C=C/C=C/C=C/C=C/C=C/C=C/C=C/[C@H](O[C@@H]2O[C@H](C)[C@@H](O)[C@H](N)[C@@H]2O)C[C@@H]2O[C@](O)(C[C@@H](O)C[C@@H](O)[C@H](O)CC[C@@H](O)C[C@@H](O)CC(=O)O[C@H]1C)C[C@H](O)[C@H]2C(=O)O` [AMPHOTERICIN B] gave an MFC (Cryptococcus neoformans) of 1 µg/mL (≈ 1.08 µM), an MIC (Cryptococcus neoformans) of 0.25 µg/mL (≈ 0.271 µM) and an MFC (Candida albicans [3]) of 4 µg/mL (≈ 4.33 µM). The MIC (Candida albicans [3]) was 1 µg/mL (≈ 1.08 µM), the MFC (Candida albicans [4]) was 2 µg/mL (≈ 2.16 µM) and the MIC (Candida albicans [4]) was 1 µg/mL (≈ 1.08 µM). The MFC (Candida albicans [5]) was 4 µg/mL (≈ 4.33 µM), the MIC (Candida albicans [5]) was 4 µg/mL (≈ 4.33 µM) and the MFC (Candida albicans [6]) was 4 µg/mL (≈ 4.33 µM). The MIC (Candida albicans [6]) was 1 µg/mL (≈ 1.08 µM), the MFC (Candida albicans [8]) was 0.25 µg/mL (≈ 0.271 µM) and the MIC (Candida albicans [8]) was 0.13 µg/mL (≈ 0.141 µM). It also gave an MFC (Candida albicans [10]) of 1 µg/mL (≈ 1.08 µM), an MIC (Candida albicans [10]) of 0.5 µg/mL (≈ 0.541 µM) and an MFC (Candida albicans [11]) of 4 µg/mL (≈ 4.33 µM). It also gave an MIC (Candida albicans [11]) of 2 µg/mL (≈ 2.16 µM), an MFC (Candida albicans [13]) of 2 µg/mL (≈ 2.16 µM) and an MIC (Candida albicans [13]) of 2 µg/mL (≈ 2.16 µM). The MFC (Candida albicans [14]) was 1 µg/mL (≈ 1.08 µM), the MIC (Candida albicans [14]) was 0.25 µg/mL (≈ 0.271 µM) and the MFC (Candida albicans [15]) was 0.5 µg/mL (≈ 0.541 µM). For the same compound, the MIC (Candida albicans [15]) was 0.25 µg/mL (≈ 0.271 µM), the MFC (Saccharomyces cerevisiae) was 0.5 µg/mL (≈ 0.541 µM) and the MIC (Saccharomyces cerevisiae) was 0.25 µg/mL (≈ 0.271 µM). It also gave an MFC (Candida albicans [18]) of 0.5 µg/mL (≈ 0.541 µM), an MIC (Candida albicans [18]) of 0.5 µg/mL (≈ 0.541 µM) and an MFC (Candida albicans [19]) of 0.5 µg/mL (≈ 0.541 µM). For the same compound, the MIC (Candida albicans [19]) was 0.25 µg/mL (≈ 0.271 µM), the MFC50 (Aspergillus sp.) was 2 µg/mL (≈ 2.16 µM) and the MFC90 (Aspergillus sp.) was 8 µg/mL (≈ 8.66 µM). For the same compound, the MFC (Aspergillus sp.; Aspergillus sp.) was 2.96 µg/mL (≈ 3.2 µM), the MIC (Aspergillus sp.; Aspergillus sp.) was 1.61 µg/mL (≈ 1.74 µM) and the MIC50 (Aspergillus sp.; Aspergillus sp.) was 1 µg/mL (≈ 1.08 µM). It also gave an MIC90 (Aspergillus sp.; Aspergillus sp.) of 4 µg/mL (≈ 4.33 µM), an MFC (Rhodotorula glutinis) of over 64 µg/mL and an MIC (Rhodotorula glutinis) of 16 µg/mL (≈ 17.3 µM).
